ChEMBL document CHEMBL1141172, “Fragment-based lead discovery using X-ray crystallography” (J Med Chem, 2005)

Molecular target: T1, Tyrosine-protein phosphatase non-receptor type 1 (Homo sapiens) (UniProt P18031)
T1 sequence (whole entry): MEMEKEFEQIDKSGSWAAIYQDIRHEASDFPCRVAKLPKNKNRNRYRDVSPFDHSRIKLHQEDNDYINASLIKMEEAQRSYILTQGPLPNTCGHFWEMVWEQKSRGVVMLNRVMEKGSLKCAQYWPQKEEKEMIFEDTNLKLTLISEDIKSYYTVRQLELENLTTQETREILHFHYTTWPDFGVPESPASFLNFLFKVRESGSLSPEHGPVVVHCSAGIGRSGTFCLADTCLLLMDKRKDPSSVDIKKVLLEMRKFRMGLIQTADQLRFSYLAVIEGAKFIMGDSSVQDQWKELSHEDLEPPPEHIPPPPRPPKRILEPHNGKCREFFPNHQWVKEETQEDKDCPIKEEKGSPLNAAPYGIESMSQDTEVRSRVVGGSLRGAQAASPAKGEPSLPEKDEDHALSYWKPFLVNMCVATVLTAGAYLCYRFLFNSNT
Experiment: Binding affinity for protein tyrosine phosphatase 1B

Affinity: 86 µM
SMILES: NCc1ccc(NC(=O)C(=O)O)cc1
